Test results: PubChem BioAssay (NCI)
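Growth conditions: 96-well plates. Treatment: test compound, 48 hours, 5 concentrations. Analysis: linear interpolation between bracketing concentrations; unreached endpoints set to highest concentration. Definition used: TGI = concentration required for complete inhibition of growth.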

Experiments:
Assay in all cases: DTP human tumour cell line panel, 48 h
SW-620 colon = tested on: SW-620 colon
SK-MEL-28 melanoma = tested on: SK-MEL-28 melanoma
NCI-H23 lung = tested on: NCI-H23 lung
OVCAR-4 ovarian = tested on: OVCAR-4 ovarian
HT29 colon = tested on: HT29 colon
SN12C renal = tested on: SN12C renal
SK-OV-3 ovarian = tested on: SK-OV-3 ovarian
HOP-62 NSCLC = tested on: HOP-62 NSCLC
HCC-2998 colon = tested on: HCC-2998 colon
SK-MEL-2 melanoma = tested on: SK-MEL-2 melanoma

Row | SMILES | TGI (SW-620 colon) | TGI (SK-MEL-28 melanoma) | TGI (NCI-H23 lung) | TGI (OVCAR-4 ovarian) | TGI (HT29 colon) | TGI (SN12C renal) | TGI (SK-OV-3 ovarian) | TGI (HOP-62 NSCLC) | TGI (HCC-2998 colon) | TGI (SK-MEL-2 melanoma)
1 | CC(C)Oc1cccc(N2C(n3ccnc3)=Nc3ccncc3S2(=O)=O)c1 | 40.1 µM | 33 µM | 24.9 µM | 33.7 µM | 34.9 µM | 29.2 µM | 31.8 µM | 33.6 µM | 31 µM | 26.7 µM
2 | Cc1ccccc1-c1nc2c(N)nc(N)nc2nc1N | > 100 µM | > 100 µM | > 100 µM | > 100 µM | > 100 µM | > 100 µM | > 100 µM | > 100 µM | > 100 µM | > 100 µM
3 | O=C(NCc1ccccc1)c1cc2ccccc2oc1=Nc1cccc(C(F)(F)F)c1 | > 100 µM | > 100 µM | > 100 µM | > 100 µM | > 100 µM | 62.7 µM | > 100 µM | > 100 µM | 61.1 µM | > 100 µM
4 | O=c1oc2ccc3ccccc3c2cc1-c1cn2ccsc2n1 | 46.8 µM | 57.3 µM | 92 µM | 40.7 µM | 37.8 µM | 83.8 µM | > 100 µM | > 100 µM | 67.9 µM | > 100 µM
5 | O=C(ON=C1c2ccccc2C(Br)C(Br)c2ccccc21)c1ccccc1 (stereo not given) | 28.6 µM | 33.2 µM | 37.8 µM | 30 µM | 38 µM | 42.9 µM | 38.9 µM | 17.3 µM | 38.1 µM | > 63.6 µM
6 | CN(O)C(=O)/C=C/c1ccc(OCc2cccc(Cl)c2)cc1 | > 100 µM | > 100 µM | 49 µM | 86.6 µM | 34.9 µM | 55.9 µM | > 100 µM | > 100 µM | 72.7 µM | 82.7 µM
7 | CC1=CC2C3(C)C(C)(C(C)=CP3(=O)c3c(C(C)C)cc(C(C)C)cc3C(C)C)C1P2(=O)c1c(C(C)C)cc(C(C)C)cc1C(C)C (stereo not given) | 13.6 µM | 8.23 µM | 4.09 µM | 16.1 µM | 6.29 µM | 7.9 µM | 10.9 µM | 10.4 µM | 3.47 µM | 3.37 µM
8 | Cc1nnc2n(c1=O)CCCN2C | > 100 µM | > 100 µM | > 100 µM | > 100 µM | > 100 µM | > 100 µM | > 100 µM | > 100 µM | > 100 µM | > 100 µM
9 | CN(C)CCN(c1ccccn1)c1ccccn1 | > 100 µM | > 100 µM | > 100 µM | > 100 µM | > 100 µM | > 100 µM | > 100 µM | > 100 µM | > 100 µM | > 100 µM
10 | CC(=O)NNc1nc(C)c(C(=O)NNC(=O)C(=O)Nc2ccc([N+](=O)[O-])cc2[N+](=O)[O-])s1 | > 100 µM | > 100 µM | > 100 µM | > 100 µM | > 100 µM | > 100 µM | > 100 µM | > 100 µM | > 100 µM | > 100 µM
11 | Cn1c2ccccc2n2c3ncccc3c(=O)c(C#N)c12 | > 100 µM | > 100 µM | 36.6 µM | > 100 µM | > 100 µM | > 100 µM | 98.1 µM | 29.5 µM | > 100 µM | 97.4 µM
12 | NC1=CC(=O)c2c(O)ccc(O)c2C1=O | 15.2 µM | 38 µM | 27.9 µM | 23.1 µM | 19.8 µM | 31.5 µM | > 94.5 µM | 64.9 µM | 24.2 µM | 32.6 µM
13 | CO/N=C1\CC(NC(=O)C(F)(F)F)c2ccsc21 (stereo not given) | > 100 µM | > 100 µM | > 100 µM | > 100 µM | > 100 µM | > 100 µM | > 100 µM | > 100 µM | > 100 µM | > 100 µM
14 | O=CC(I)=C(c1ccccc1)c1ccccc1 | 19.9 µM | 31.8 µM | 46.9 µM | 27.3 µM | 29.4 µM | 45.3 µM | 29.9 µM | 32 µM | 35.8 µM | 33.4 µM
15 | Cc1c2cccc-2c2cc(O)c3ccccc3c2n1-c1ccc(N(C)C)cc1 | 53.6 µM | 35 µM | 18.2 µM | 12.1 µM | 31.4 µM | 33.9 µM | 29.3 µM | 27.9 µM | 35.1 µM | 31.4 µM
16 | COc1ccc2c(c1)c1c(n2CCN2CCCCC2)-c2cccc(OC)c2CC1 | 42.5 µM | 35 µM | 32.1 µM | > 100 µM | 17.6 µM | 36.8 µM | > 100 µM | 32.4 µM | 36.4 µM | 32.3 µM
17 | COc1ccc(N=Nc2c(-c3c(OC)cc4occc4c3OC)[nH]c(=O)c(C#N)c2C)cc1 | > 100 µM | > 100 µM | > 100 µM | > 100 µM | > 100 µM | > 100 µM | > 100 µM | > 100 µM | > 100 µM | > 100 µM
